Consider one compound from US20050074901A1, “Methods and assays for detecting and quantifying the human p53 inducible gene protein” (priority 2002, published 2005).

SMILES strings stand for the structures. Like-named read-outs stand apart in the source and are kept apart here.

The subject of test [1] is PIG3. In words: Adriamycin upregulation of PIG3 over time and dose (PIG3 ELISA, FIG. 4A). The test is classed as cell-based, human. The source says:
The invention features a PIG3 ELISA that is a “sandwich” enzyme immunoassay employing two mouse monoclonal antibodies and methods for using the assay. A monoclonal antibody, specific for the human PIG3 protein, is immobilized onto the surface of microtiter wells provided. A kit for the immunoassay, comprising two monoclonal antibodies X1155P and X1156M, is available from Exalpha Biologicals, Inc. in Boston, Mass. As the Frontier Assay Kit. The sample to be assayed and the biotinylated detector monoclonal antibody are pipetted into the wells and allowed to incubate for two hours, during which time any PIG3 present binds to the capture and detecting antibodies. […]
The horseradish peroxidase catalyzes the conversion of the chromogenic substrate tetra-methylbenzidine (TMB) from a colorless solution to a blue solution (or yellow after the addition of stop reagent), the intensity of which is proportional to the amount of PIG3 protein in the sample. The colored reaction product is quantified using a spectrophotometer.
Quantitation is achieved by the construction of a standard curve using known concentrations of PIG3 (provided lyophilized). By comparing the absorbance obtained from a sample containing an unknown amount of PIG3 with that obtained from the standards, the concentration of PIG3 in the sample is determined. […]
(ELISA stands for enzyme-linked immunosorbent assay.)

Test [2] relates to PIG3. The note with it: cited from earlier work.

For `COc1cccc2c1C(=O)c1c(O)c3c(c(O)c1C2=O)C[C@@](O)(C(=O)CO)C[C@@H]3O[C@H]1C[C@H](N)[C@H](O)[C@H](C)O1` [Adriamycin, adriamycin], the PIG3 level entry in test [1] is listed as “upregulation of PIG3”. For the same compound, the PIG3 induction result is on record as “strongly induced” in test [2] (cell lines with wild-type p53 genes) and “not in the cell with mutant p53” in test [2] (cell with mutant p53).
